Assay results as given in article PMC8333620, “Novel Tl(III) complexes containing pyridine-2,6-dicarboxylate derivatives with selective anticancer activity through inducing mitochondria-mediated apoptosis in A375 cells” (Scientific Reports, 2021).

Columns and labels:
A375 cells [1] = assay: Intracellular ROS (H2DCF-DA, flow cytometry), A375; format: cell-based, human; settings: A375, IC50 concentrations, 24 h
Procedure: (§1) The generation of intracellular ROS was evaluated by reactive oxygen species assay kit. 2 mL of A375 cells (1 × 10^6 cells/mL) were induced with C1–C3 (at IC50 concentrations) at 37 °C for 24 h, serum-free medium washed twice. Then, the cells were incubated in 2 mL of serum-free medium containing H2DCF-DA (2 μM) for 30 min at 37 °C, serum-free medium washed twice. Cells were collected and assayed by flow cytometer with excitation wavelength at 489 nm and emission wavelength at 524 nm, and ten thousand events were collected. The DCF fluorescence peak for this cell sample was evaluated and data were analyzed by FlowJo software. This test was performed as explained on HFF cells treatment to C3 (at the highest concentration)[38].

Bax/Bcl-2 = assay: Western blot, Bax/Bcl-2 ratio in A375 cells; format: cell-based, human; settings: A375, IC50 concentrations, 24 h
Procedure: After incubation with C1 and C3 at IC50 concentrations for 24 h, A375 cells were harvested and lysed in 150 μL of lysis buffer (149 μL RIPA and 1 μL PMSF), and then placed on ice for 15 min. Total proteins were extracted by centrifuging the cell sample at 10,000 rpm and 4 °C for 10 min. Then about 50 μg of purified proteins were mixed with an equal volume of electrophoresis sample buffer, and the mixture was heated for 10 min. Meanwhile, the equal protein content from the control cells was prepared in the same way. The cell sample (10 μL) was loaded onto 10% SDS-PAGE gels and then transferred onto a microporous polyvinylidene difluoride (PVDF) membrane. The membrane was blocked with 5% BSA in TBST buffer for more than 2 h. After the removal of TBST buffer, membranes were incubated with an appropriate dilution of specific primary antibodies in TBST overnight at 4 °C and then washed with TBST three times. The membranes were incubated with secondary antibodies for 1 h and washed with TBST. The immunoreactive signals were detected using an enhanced chemo-luminance kit (Pierce ECL Western Blotting Substrate) following the procedures given in the user manual[46],[63].

HFF cells [2] = assay: Cell cycle analysis (PI, flow cytometry), HFF; format: cell-based, human; settings: highest concentration, 24 h
Procedure: A375 cells were seeded in 6-well plates with 1.5 × 10^6 cells /well and treated with the C1 and C3 at IC50 concentrations for 24 h. Cells were trypsinized, collected, and fixed in ice-cold 75% ethanol at − 20 °C overnight. After centrifugation, the fixed cells were rinsed with ice-cold phosphate-buffered saline (PBS) and resuspended in 0.5 mL of PBS containing 100 μg/mL DNase-free RNase A (Thermo Fisher Scientific Biosciences GmbH, St. Leon-Rot, Germany), 50 μg/mL propidium iodide (PI; Sigma Aldrich) in the dark for 30 min. The distribution of the cells in different phases of the cell cycle was determined using flow cytometry (Attune Nxt, Thermo Fisher Scientific-US) and FlowJo software v10.6.1 (https://www.flowjo.com/solutions/flowjo/downloads) was used to analyze the data. This test was performed as explained on HFF cells treatment to C3 (at the highest concentration)[62].

HFF cells [3] = assay: Intracellular ROS (H2DCF-DA, flow cytometry), HFF; format: cell-based, human; settings: highest concentration, 24 h, compared with A375
Procedure: as §1

HFF cells [4] = assay: Mitochondrial membrane potential assay (JC-1), HFF; format: cell-based, human; settings: highest concentration, JC-1, 24 h
Procedure: (§2) Mitochondrial membrane potential analysis was determined by fluorescent dye JC-1 staining according to the manufacturer's protocol for the JC-1 assay kit. In brief, 2 mL of A375 cells (1 × 10^5 cells/mL) were treated with IC50 concentrations of C1 and C3 in 6-well plates for […]. Cells were harvested and washed three times with PBS after 24 h of incubation. Then cells were stained with 1 mL of JC-1 stock solution (10 mg/mL). Assays were initiated by incubating A375 cells with JC-1 for 30 min at 37 °C in the dark and detected with a fluorescence microscope. This test was performed as explained on HFF cells treatment to C3 (at the highest concentration).

[5] = system: HT29 (a human colon adenocarcinoma) cell line; assay: MTT cytotoxicity assay, HT29; format: cell-based; settings: MTT, 48 h
Procedure: In this study, A375 (a human melanoma), HT29 (a human colon adenocarcinoma), and HFF (a human foreskin fibroblast) cell lines were provided from the Pasteur Institute (Iran). […] 10 mM stock solutions of compounds were prepared in DMSO and diluted in a fresh medium for use. The final concentration of DMSO never exceeded 0.1% (v/v). […] Then the medium was replaced with the respective medium containing ligands or Tl(III) complexes at different concentrations and incubated for 48 h. 10 μL of MTT was added and the medium was removed after 4 h of incubation. Finally, the violet crystal was solubilized in 100 μL DMSO and the absorbance was measured at 570 nm. IC50 value was measured by the standard method. The evaluations were carried out in triplicate[21],[23].

A375 cells [6] = assay: Mitochondrial membrane potential assay (JC-1), A375; format: cell-based, human; settings: A375, IC50 concentrations, JC-1, 24 h
Procedure: as §2

A375 cells [7] = assay: Apoptosis by Annexin-V/PI staining; format: cell-based, human; settings: A375, IC50 concentrations, 24 h
Procedure: Annexin V-FITC and PI staining (Annexin V/PI) apoptosis detection kit were used for assessing the percentage of dead cells by apoptosis pathway. Briefly, A375 cells were treated with C1 and C3 at IC50 concentrations. After 24 h of incubation, cells were washed with PBS, trypsinized, centrifuged, and re-suspended in 100 μL binding buffer at a concentration of 1 × 10^6 cells/mL, then added 5 μL of annexin V-FITC conjugate (30 min), and 5 μL of Propidium Iodide (PI) to each cell suspension (20 min) in the dark. The samples were analyzed using a flow cytometer (Attune Nxt, Thermo Fisher Scientific-US), and the results were assessed using the FlowJo software.

(4-apyH)[Tl(pydc)(pydcH)2]0.5H2O [C3]
ROS level (DCF oxidation), more effective than vehicle control-treated (A375 cells [1]): 229.4%
ratio of Bax/Bcl-2 (Bax/Bcl-2): 5.25 fold
effect on cell cycle distribution in HFF cells (HFF cells [2]): does not have a remarkable effect on the cellular population in none of the phases
production of ROS in HFF cells (HFF cells [3]): much less than what was produced in cancer cells of A375
changes in MMP of HFF cells (HFF cells [4]): insignificant changes
Viability inhibition, HT29 ([5]; concentration not given): 53.12%
IC50 ([5]; read-out: Cytotoxicity (IC50 ± SEM) against HT29): 193.2 ± 1.12 µM
mitochondrial membrane potential (MMP) in A375 cells (A375 cells [6]): MMP reduction
apoptosis, more effective than vehicle control-treated (A375 cells [7]): 61.66%
early apoptosis (annexin V+/PI-, Q3) (A375 cells [7]): 11.47%
late apoptosis (annexin V+/PI+, Q2) (A375 cells [7]): 50.19%
